Reference: patent publication US20140024663A1, “ATB(0,+) AMINO ACID TRANSPORTER AS A DRUG TARGET FOR TREATMENT OF ESTROGEN RECEPTOR-POSITIVE BREAST CANCER” (GEORGIA HEALTH SCIENCES UNIVERSITY RESEARCH INSTITUTE, INC., priority 2012, published 2014)

Legend:
[1] = test system: MB231 cells; experiment: Cell death by propidium iodide staining and FACS cell cycle analysis; assay type: cell-based, human; details: MB231, α-MT 2.5 mM and 3-MA 10 mM, either alone or together, 48 h
Experimental: (§1) FIGS. 9A to 9D. Influence of α-MT on mTOR activity In FIG. 9A, MCF7 and MB231 cells were treated without or with α-MT (2.5 mM) for 24 h, 48 h, or 72 h, and then the cell lysates were used for western blot. Influence of α-MT with or without 3-MA on cell death. In FIG. 9B, MCF7, MB231, and MCF10A cells were treated for 48 h without or with α-MT (2.5 mM), 3-MA (10 mM), or α-MT (2.5 mM) plus 3-MA (10 mM), and then analyzed for cell death by propidium iodide (PI) staining and FACS-based cell cycle analysis. In FIG. 9C, MCF7 cells were treated for 48 h without or with α-MT (2.5 mM), 3-MA (10 mM), or α-MT (2.5 mM) plus 3-MA (10 mM), and then analyzed for apoptotic cell death by annexin V labeling. In FIG. 9D, MCF7 and MB231 cells were treated without or with 2.5 mM α-MT for 24 h, 48 h, or 72 h. Cell lysates were then used for western blot analysis of lamin A degradation product using an antibody that recognizes specifically the proteolytic cleavage product. β-Actin was used as an internal control.
(§2) Apoptosis assay. Fluorescence-activated cell sorting (FACS) was used to monitor cell death. MCF7 cells were treated with or without α-MT, 3-MA, or α-MT plus 3-MA. Control and treated cells were then fixed in 50% ethanol, treated with 0.1% sodium citrate, 1 mg/ml RNase A, and 50 μg/ml propidium iodide, and then subjected to FACS analysis (FACS Caliber, Becton Dickinson). FITC-labeled annexin V was used to differentiate apoptotic cell death from necrotic cell death.

[2] = test system: MCF10A cells; experiment: as above; assay type: cell-based, human; details: α-MT 2.5 mM and 3-MA 10 mM, either alone or together, 48 h
Experimental: as §1, §2

[3] = test system: MCF7 cells; experiment: Apoptotic cell death by annexin V labeling; assay type: cell-based, human; details: 48 h
Experimental: as §1, §2

[4] = test system: MCF7 cells; experiment: Analysis of autophagy (LC3 localization, electron microscopy, autophagosomal proteolysis, GFP-LC3); assay type: cell-based, human; details: 48 h
Experimental: FIGS. 6A to 6C. Effects of SLC6A14 blockade with α-MT in breast cancer cells. In FIG. 6A, MCF10A (a non-malignant mammary epithelial cell line), MCF7 (an ER-positive breast cancer cell line), and MB231 (an ER-negative breast cancer cell line) cells were treated with or without 2.5 mM α-MT for 24, 48, or 72 h and then used for analysis of asparagine synthetase (ASNS) and CHOP mRNA levels. In FIG. 6B, MCF7, MB231 and MCF10A cells were treated with or without 2.5 mM α-MT for 48 h and then used for immunocytochemical analysis of the constitutively expressed LC-3. In FIG. 6C, MCF7 cells were treated with (“b” and “c”) or without (“a”) α-MT (2.5 mM) for 48 h and then used for electron microscopy. Arrows indicate sequestration of cytoplasm and organelles in pre-autophagosomes and autophagosome, and the asterisk indicates condensed chromatin. N, nucleus.
FIGS. 7A and 7B. Induction of autophagy in MCF7 cells by α-MT. […] The concentrations of α-MT and 3-MA, when present, were 2.5 mM and 10 mM. The treatment time was 48 h. The extent of proteolysis was determined by the radioactivity present in the protein-free supernatant. […] In FIG. 7B, MCF7 cells were transfected with an GFP-LC3 expression plasmid, and 24 h later, the cells were treated with or without α-MT (2.5 mM) in the presence or absence of 3-MA (10 mM) for 48 h. At the end of the treatment, cells were fixed, and the percent of cells with punctate localization of the ectopically expressed GFP-LC3 was quantified. “a” represents compared to control; “b” represents compared to treatment with α-MT alone; and “c” represents compared to treatment with […]; *, p<0.001.
Analysis of autophagy. Autophagy was analyzed as described previously (Periyasamy-Thandavan et al., 2010, Autophagy; 6:19-35; and Samaddar et al., 2008, Mol Cancer Ther; 7:2977-2987) by monitoring the localization pattern of constitutively expressed LC3 as well as that of ectopically expressed GFP-LC3. In the case of the constitutively expressed LC3, cells were treated without or with α-MT, and then used for immunocytochemical analysis of LC3 localization pattern. For ectopically expressed LC3, cells were transfected with a GFP-LC3 expression plasmid. Briefly, cells were plated on a coverslip to reach ˜50% confluence and transfection of these cells was done with 1 μg of the plasmid using FuGENE transfection reagent (Roche, Nutley, N.J.). […] At the end of the treatment, cells were fixed with 4% paraformaldehyde and examined by fluorescence microscopy to count the number of cells with punctate GFP-LC3. Autophagosomal proteolysis was quantified as described previously (Periyasamy-Thandavan et al., 2010, Autophagy; 6:19-35). […]

[5] = target: T1, Human SLC6A14 (Homo sapiens, UniProt Q9UN76); experiment: SLC6A14 transport function in X. laevis oocytes (two-microelectrode voltage-clamp); assay type: cell-based; details: for Hill coefficient of Na+-activation kinetics (number of Na+ involved in the activation process): SLC6A14-mediated transport, amino acid 1 mM, Cl- constant at 100 mM, three oocytes; for inward currents on perifusion of SLC6A14-expressing oocytes: amino acid 100 M (so in the source), in the presence of NaCl
T1 construct: expressed in transfected cells; host or cells: Xenopus laevis oocytes, microinjected with human SLC6A14 cRNA
T1 sequence (Q9UN76 1-642): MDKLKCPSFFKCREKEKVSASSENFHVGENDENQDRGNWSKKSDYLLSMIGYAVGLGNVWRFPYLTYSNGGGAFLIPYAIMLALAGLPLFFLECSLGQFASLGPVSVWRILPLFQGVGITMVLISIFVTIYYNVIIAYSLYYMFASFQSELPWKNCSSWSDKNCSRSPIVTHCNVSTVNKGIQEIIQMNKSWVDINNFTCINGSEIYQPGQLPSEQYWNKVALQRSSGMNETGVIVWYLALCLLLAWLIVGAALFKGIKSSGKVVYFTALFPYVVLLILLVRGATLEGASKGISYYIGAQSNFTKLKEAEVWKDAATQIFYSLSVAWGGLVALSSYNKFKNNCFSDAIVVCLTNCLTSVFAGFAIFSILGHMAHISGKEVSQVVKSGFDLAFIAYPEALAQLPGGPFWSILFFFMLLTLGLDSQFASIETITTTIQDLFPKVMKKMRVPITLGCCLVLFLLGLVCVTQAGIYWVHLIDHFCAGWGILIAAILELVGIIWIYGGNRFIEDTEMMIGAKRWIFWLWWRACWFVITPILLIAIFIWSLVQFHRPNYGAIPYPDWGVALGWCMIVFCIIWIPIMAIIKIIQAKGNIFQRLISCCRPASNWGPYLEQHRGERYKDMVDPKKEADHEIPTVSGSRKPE
From the text: FIGS. 3A and 3B. Natactivation kinetics of SLC6A14-mediated transport of leucine (FIG. 3A) and arginine and glutamine (FIG. 3B). Human SLC6A14 was expressed heterologously in X. laevis oocytes by microinjection of cRNA. Four days following injection, oocytes were used for electrophysiological studies using the two-microelectrode voltage-clamp method. […] Since the expression levels varied from oocyte to oocyte resulting in varying magnitudes of amino acid-induced currents, the currents were normalized by taking the magnitude of the currents induced at 100 mM Na^+ as 1 in each oocyte and calculating the magnitude of the currents induced at other concentrations of Na^+ as a fraction of this maximal current. The experiments were done with three different oocytes and the results are given as means±SE. Insets, Hill plots.
FIG. 4. Cl^−-activation kinetics of SLC6A14-mediated transport of leucine, arginine, and glutamine. […] The experiments were done with three different oocytes and the results are given as means±SE.
FIGS. 5A to 5C. Blockade of SLC6A14-mediated transport of leucine (FIG. 5A), glutamine (FIG. 5B), and arginine (FIG. 5C) by α-MT. Oocytes injected with human SLC6A14 cRNA were perifused with 100 µM leucine, 100 μM glutamine, or 100 μM arginine under varying experimental conditions as indicated.
Analysis of SLC6A14 transport function in X. laevis oocytes. SLC6A14-mediated transport of leucine, glutamine, and arginine and its blockade by α-MT were studied using the X. laevis oocyte heterologous expression system as described previously (Hatanaka et al., 2001, J Clin Invest; 107:1035-1043; and Karunakaran et al., 2008, Biochem J; 414:343-355). Human cloned SLC6A14 cDNA was used in these studies.

Row | Hill coefficient of Na+-activation kinetics (number of Na+ involved in the activation process) [5] | inward currents on perifusion of SLC6A14-expressing oocytes [5] | SMILES | effect on cell death [1] | effect on cell death [2] | apoptotic cell death by annexin V labeling ([3]; MCF7, 3-MA 10 mM combined with α-MT 2.5 mM, compared with either agent alone) | apoptotic cell death by annexin V labeling ([3]; MCF7, single agent (α-MT 2.5 mM or 3-MA 10 mM)) | inhibition of α-MT-induced proteolysis of 14C-labeled proteins ([4]; MCF7, cotreatment 3-MA 10 mM with α-MT 2.5 mM) | block of autophagy induced by α-MT ([4]; MCF7 transfected with GFP-LC3, 3-MA 10 mM plus α-MT 2.5 mM) [%]
1 |  |  | Cn1cnc(N)c2ncnc1-2 [3-MA, 3-methyladenine, reference compound] | very little, if any, effect | very little, if any, effect | much greater | significant apoptosis | inhibited significantly | > 90
2 | 2.4 | induced inward currents | NC(=O)CC[C@H](N)C(=O)O [glutamine] |  |  |  |  |  | 
3 | 2.2 | induced inward currents | CC(C)C[C@H](N)C(=O)O [leucine] |  |  |  |  |  | 

Row | SMILES | Hill coefficient of Na+-activation kinetics (number of Na+ involved in the activation process) [5] | inward currents on perifusion of SLC6A14-expressing oocytes [5] | effect on cell death [1] | effect on cell death [2] | apoptotic cell death by annexin V labeling ([3]; MCF7, 3-MA 10 mM combined with α-MT 2.5 mM, compared with either agent alone) | apoptotic cell death by annexin V labeling ([3]; MCF7, single agent (α-MT 2.5 mM or 3-MA 10 mM)) | inhibition of α-MT-induced proteolysis of 14C-labeled proteins ([4]; MCF7, cotreatment 3-MA 10 mM with α-MT 2.5 mM) | block of autophagy induced by α-MT ([4]; MCF7 transfected with GFP-LC3, 3-MA 10 mM plus α-MT 2.5 mM) [%]
4 | N=C(N)NCCC[C@H](N)C(=O)O [arginine] | 2.1 | induced inward currents |  |  |  |  |  | 
